Measured values reported in patent US11440923B2, “Substituted macrocyclic indole derivatives” (Bayer Aktiengesellschaft, priority 2017, dated 2022).
Where a name gives a salt, the structure may show the parent alone. Read-outs that look alike come from different tables or passages of the source.

Key:
[1] = target: MCL1 protein / biotinylated BIM BH3 peptide in RKO cells (Homo sapiens (Human), UniProt Q07820); assay: PIxEL: protein-protein interaction in permeabilized cells by ELISA (Assay 5); format: cell-based; conditions: PIxEL IC50 (median)
Description: PIxEL: Protein-Protein Interaction in Permeabilized Cells by ELISA
Most MCL1 protein molecules are localized at the mitochondria outer membrane and sequester pro-apoptotic proteins through binding of their BCL2 homology domain 3 (BH3 domain). MEB buffer (150 mM mannitol, 10 mM HEPES pH 7.5, 50 mM KCl, 20 μM EDTA, 20 μM EGTA, 5 mM potassium succinate, 0.1% protease-free BSA (SIGMA) with low dose digitonin (0.002%) permeabilizes plasma membrane while leaves live mitochondria, where MCL1 maintains its native localization and conformation. Unlike biophysical assays (e.g. TR-FRET) that use truncated recombinant MCL1 protein, this assay uses full length endogenous MCL1 protein at mitochondria outer membrane. It measures the interaction between MCL1 protein and biotinylated BIM BH3 peptide. Compounds can compete with BIM BH3 peptide to bind to MCL1 protein.
On day 1, RKO colon cancer cell line cells were plated at 0.8 million cells/ml, 100 μl/well in 96-well flat bottom TC plates (Corning). MCL1 antibody (Santa Cruz sc-12756) were diluted at 200 fold (final concentration 1 μg/ml) in carbonate buffer (Thermo Fisher Scientific, pH 9.6), and 50 μl of diluted antibody was added to each well of high bind ELISA plates ([…]). Each plate was tapped to make sure liquid covering entire bottom of wells and incubate at 37° C. overnight.
On the second day, MCL1 antibody was washed from ELISA plate. 250 μl Odyssey® Blocking Buffer (PBS) (Li-Cor) was added to each well, incubated at room temperature for at least 1 hour, then washed once with 250 μl 1×PBST. Plates with RKO cells were gently washed once with 100 μl/well PBS, once with 100 μl/well MEB buffer without digitonin, then 100 μl of MEB buffer with 0.002% digitonin was gently added to each well. Compounds were added with HP Tecan compound dispenser in 3-fold dilution series, highest dose 30 μM, 10-dose per compound in quadruplicates. Biotin-BIM peptide (synthesized by 21st Century) was added with HP Tecan compound dispenser at 0.2 μM immediately after the addition of compounds. Plates were rocked for 1 hour at room temperature. Then MEB buffer was aspirated and 50 μl of CHAPS buffer (50 mM Tris-Cl, pH 7.4, 150 mM NaCl, 1% CHAPS, 1 mM EDTA, 1 mM EGTA, cOmplete protease inhibitors (Roche), PhosSTOP (Roche)) was added to each well. Plates were rocked for 1 hour at 4° C., then 45 μl cell lysate from each well were transferred to ELISA plates coated with MCL1 antibody. Plates were incubated overnight in the cold room with rocking.
On the third day, ELISA plates were washed once with 250 μl 1×PBST. Streptavidin-poly-HRP (Thermo Fisher Scientific) was diluted to 20 ng/ml in Odyssey blocking buffer plus 0.05% Triton-100, and 100 μl was added to each well of the ELISA plate. Plates were incubated at room temperature for 1 hour with rocking, then washed with 100 μl 1×PBST for 3 times. Each SuperSignal ELISA Femto Maximum Sensitivity substrate was added to a 50-ml tube and mixed, then 100 μl of mixed substrate was added to each well. Plates were shaken for 1 minute then luminescence was measured by Envision plate reader […]. Signal of each well were normalized by no-compound control and no-cell control. IC50 was calculated using Graphic Pad PRISM software.

[2] = target: MCL-1 (Homo sapiens (Human), UniProt Q07820, K194A/K197A/R201A); assay: Protein-protein interaction assay MCL-1/Noxa BH3 peptide (MCL-1 assay, TR-FRET); format: binding
How it was run: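 IC50 came from a 4-parameter regression of the 665/620 nm emission ratio, normalized to DMSO controls. The mix held 1 nM MBP-fused MCL-1 (residues 173-321), a biotin-Noxa BH3 tracer and compound in Tris buffer pH 7, incubated 10 min plus 1 h at 22° C., then overnight at 4° C.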

Chain of MCL-1 (Q07820 whole entry, looked up, stated change not applied, the tested form may be a part): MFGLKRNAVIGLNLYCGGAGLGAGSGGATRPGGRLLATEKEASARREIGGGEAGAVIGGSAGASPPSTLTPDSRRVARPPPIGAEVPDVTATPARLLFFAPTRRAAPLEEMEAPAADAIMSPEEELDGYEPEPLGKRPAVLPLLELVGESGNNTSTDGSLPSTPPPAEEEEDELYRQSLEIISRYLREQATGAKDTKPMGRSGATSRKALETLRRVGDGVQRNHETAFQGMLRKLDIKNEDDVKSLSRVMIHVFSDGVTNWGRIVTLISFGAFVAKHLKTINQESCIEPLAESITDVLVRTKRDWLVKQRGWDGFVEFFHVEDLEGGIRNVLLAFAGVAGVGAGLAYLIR
Chain of MCL1 protein / biotinylated BIM BH3 peptide in RKO cells (Q07820 whole entry): as the sequence (Q07820 whole entry, looked up, stated change not applied, the tested form may be a part) above

Row | Compound | IC50 [1] [µM] | IC50 ([2]; MCL-1 Assay IC50 (median)) [µM] | IC50 ([2]; read-out: MCL-1 Assay IC50 (median)) [µM]
1 | Cc1c2c(nn1C)C(CCN1CCOCC1)OCCCCn1c(C(=O)O)c(CCCOc3cccc4cc(F)ccc34)c3ccc(Cl)c-2c31 (single isomer, unassigned; enantiomer 2) [Example 18, 4-chloro-7-{3-[(6-fluoronaphthalen-1-yl)oxy]propyl}-2,3-dimethyl-15-[2-(morpholin-4-yl)ethyl]-2,10,11,12,13,15-hexahydropyrazolo[4′,3′:9,10][1,6]oxazacycloundecino[8,7,6-hi]indole-8-carboxylic Acid (Enantiomer 2)] | 2.43 | 0.042 | –
2 | Cc1c2c(nn1C)C(CCN1CCOCC1)OCCCCn1c(C(=O)O)c(CCCOc3cccc4ccccc34)c3ccc(Cl)c-2c31 (single isomer, unassigned; enantiomer 1) [Example 14, 4-chloro-2,3-dimethyl-15-[2-(morpholin-4-yl)ethyl]-7-{3-[(naphthalen-1-yl)oxy]propyl}-2,10,11,12,13,15-hexahydropyrazolo[4′,3′:9,10][1,6]oxazacycloundecino[8,7,6-hi]indole-8-carboxylic Acid (Enantiomer 1)] | 0.0834 | 0.00053 | –
3 | CCc1c2c(nn1C)C(CCN1CCOCC1)OCCCCn1c(C(=O)O)c(CCCOc3cccc4ccccc34)c3ccc(F)c-2c31 (racemic) [Example 10, (rac)-3-ethyl-4-fluoro-2-methyl-15-[2-(morpholin-4-yl)ethyl]-7-[3-(naphthalen-1-yloxy)propyl]-2,10,11,12,13,15-hexahydropyrazolo[4′,3′:9,10][1,6]oxazacycloundecino[8,7,6-hi]indole-8-carboxylic Acid] | 0.325 | 0.00072 | –
4 | Cc1c2c(nn1C)C(C1CC1)OCCCCn1c(C(=O)O)c(CCCOc3cccc4ccccc34)c3ccc(Cl)c-2c31 (racemic) [Example 28, (rac)-4-Chloro-15-cyclopropyl-2,3-dimethyl-7-{3-[(naphthalen-1-yl)oxy]propyl}-2,10,11,12,13,15-hexahydropyrazolo[4′,3′:9,10][1,6]oxazacycloundecino[8,7,6-hi]indole-8-carboxylic Acid] | 2.33 | 0.0011 | –
5 | Cc1c2c(nn1C)C(CCO)OCCCCn1c(C(=O)O)c(CCCOc3cccc4ccccc34)c3ccc(Cl)c-2c31 (single isomer, unassigned; enantiomer 1) [Example 31, (+)-4-chloro-15-(2-hydroxyethyl)-2,3-dimethyl-7-{3-[(naphthalen-1-yl)oxy]propyl}-2,10,11,12,13,15-hexahydropyrazolo[4′,3′:9,10][1,6]oxazacycloundecino[8,7,6-hi]indole-8-carboxylic Acid (Enantiomer 1)] | 0.481 | 0.00026 | –
6 | CCc1c2c(nn1C)C(CCN1CCOCC1)OCCCCn1c(C(=O)O)c(CCCOc3cccc4ccccc34)c3ccc(F)c-2c31 (single isomer, unassigned; enantiomer 2) [Example 12, 3-ethyl-4-fluoro-2-methyl-15-[2-(morpholin-4-yl)ethyl]-7-{3-[(naphthalen-1-yl)oxy]propyl}-2,10,11,12,13,15-hexahydropyrazolo[4′,3′:9,10][1,6]oxazacycloundecino[8,7,6-hi]indole-8-carboxylic Acid—N-ethylethanamine Salt (Enantiomer 2)] | 19.4 | – | –

Continued, values first:

Row | IC50 [1] [µM] | IC50 ([2]; MCL-1 Assay IC50 (median)) [µM] | IC50 ([2]; read-out: MCL-1 Assay IC50 (median)) [µM] | Compound
7 | 0.0368 | 0.00048 | – | CCc1c2c(nn1C)C(CCN1CCOCC1)OCCCCn1c(C(=O)O)c(CCCOc3cccc4cc(F)ccc34)c3ccc(F)c-2c31 (single isomer, unassigned; enantiomer 1) [Example 50, (+)-3-ethyl-4-fluoro-7-{3-[(6-fluoronaphthalen-1-yl)oxy]propyl}-2-methyl-15-[2-(morpholin-4-yl)ethyl]-2,10,11,12,13,15-hexahydropyrazolo[4′,3′:9,10][1,6]oxazacycloundecino[8,7,6-hi]indole-8-carboxylic Acid (Enantiomer 1)]
8 | 0.155 | 0.00055 | – | CCc1c2c(nn1C)C(CCO)OCCCCn1c(C(=O)O)c(CCCOc3cccc4cc(F)ccc34)c3ccc(Cl)c-2c31 (single isomer, unassigned; enantiomer 1) [Example 45, (+)-4-chloro-3-ethyl-7-{3-[(6-fluoronaphthalen-1-yl)oxy]propyl}-15-(2-hydroxyethyl)-2-methyl-2,10,11,12,13,15-hexahydropyrazolo[4′,3′:9,10][1,6]oxazacycloundecino[8,7,6-hi]indole-8-carboxylic Acid (Enantiomer 1)]
9 | 12 | 0.06 | – | CCc1c2c(nn1C)C(CCN1CCOCC1)OCCCCn1c(C(=O)O)c(CCCOc3cccc4cc(F)ccc34)c3ccc(F)c-2c31 (single isomer, unassigned; enantiomer 2) [Example 51, (−)-3-ethyl-4-fluoro-7-{3-[(6-fluoronaphthalen-1-yl)oxy]propyl}-2-methyl-15-[2-(morpholin-4-yl)ethyl]-2,10,11,12,13,15-hexahydropyrazolo[4′,3′:9,10][1,6]oxazacycloundecino[8,7,6-hi]indole-8-carboxylic Acid (Enantiomer 2)]
10 | 0.063 | – | 0.0011 | CCc1c2c(nn1C)C1CCCN1CCCCn1c(C(=O)O)c(CCCOc3cccc4cc(F)ccc34)c3ccc(Cl)c-2c31 (single isomer, unassigned; (+)) [Example 105, (+)-17-chloro-1-ethyl-14-{3-[(6-fluoronaphthalen-1-yl)oxy]propyl}-2-methyl-3b,4,5,6,8,9,10,11-octahydro-2H-pyrazolo[3′,4′:8,9]pyrrolo[1′,2′:6,7][1,6]diazacycloundecino[10,11,1-hi]indole-13-carboxylic Acid]
11 | 1.51 | – | – | CCc1c2c(nn1C)C(C(F)(F)F)OCCCCn1c(C(=O)O)c(CCCOc3cccc4ccccc34)c3ccc(Cl)c-2c31 (single isomer, unassigned; enantiomer 1) [Example 33, (+)-4-chloro-3-ethyl-2-methyl-7-{3-[(naphthalen-1-yl)oxy]propyl}-15-(trifluoromethyl)-2,10,11,12,13,15-hexahydropyrazolo[4′,3′:9,10][1,6]oxazacycloundecino[8,7,6-hi]indole-8-carboxylic Acid—N-ethylethanamine Salt (Enantiomer 1)]
12 | 1.64 | – | – | Cc1c2c(nn1C)C(C1CC1)OCCCCn1c(C(=O)O)c(CCCOc3cccc4ccccc34)c3ccc(Cl)c-2c31 (single isomer, unassigned; enantiomer 1) [Example 35, (+)-4-chloro-15-cyclopropyl-2,3-dimethyl-7-{3-[(naphthalen-1-yl)oxy]propyl}-2,10,11,12,13,15-hexahydropyrazolo[4′,3′:9,10][1,6]oxazacycloundecino[8,7,6-hi]indole-8-carboxylic Acid N-ethylethanamine Salt (Enantiomer 1)]
13 | 0.135 | – | – | CCc1c2c(nn1C)C(CC(C)(C)O)OCCCCn1c(C(=O)O)c(CCCOc3cccc4cc(F)ccc34)c3ccc(Cl)c-2c31 (single isomer, unassigned; enantiomer 1) [Example 53, (+)-4-chloro-3-ethyl-7-{3-[(6-fluoronaphthalen-1-yl)oxy]propyl}-15-(2-hydroxy-2-methylpropyl)-2-methyl-2,10,11,12,13,15-hexahydropyrazolo[4′,3′:9,10][1,6]oxazacycloundecino[8,7,6-hi]indole-8-carboxylic Acid—N-ethylethanamine Salt (Enantiomer 1)]
